Test results: ChEMBL document CHEMBL1143511, “Antitubercular agents. Part 1: synthesis of phthalimido- and naphthalimido-linked phenazines as new prototype antitubercular agents” (2005)
≈ marks a conversion by molar mass, not a printed value.

How the values were obtained:
Assay type in all cases: functional
[1] = system: Mycobacterium tuberculosis; assay: Minimum inhibitory concentration tested against Mycobacterium tuberculosis resistant clinical isolates; Range:1-4 ug/ml
[2] = system: Mycobacterium tuberculosis; assay: Minimum inhibitory concentration tested against Mycobacterium tuberculosis resistant clinical isolates
[3] = system: Mycobacterium tuberculosis; assay: Minimum inhibitory concentration tested against Mycobacterium tuberculosis resistant clinical isolates; Range 8->16 ug/mL
[4] = system: Mycobacterium tuberculosis; assay: Minimum inhibitory concentration tested against Mycobacterium tuberculosis resistant clinical isolates; Range 8-16 ug/mL

Row | Structure (SMILES) | MIC [2] [µg/mL] | also measured
1 | O=C1c2ccccc2C(=O)N1CCCCCN1CCN(CC/N=c2/cc3n(-c4ccc(Cl)cc4)c4ccccc4nc-3cc2Nc2ccc(Cl)cc2)CC1 |  | MIC [1]: 4 µg/mL (≈ 5.27 µM)
2 | O=C1c2cccc3cccc(c23)C(=O)N1CCCCN1CCN(CC/N=c2/cc3n(-c4ccc(Cl)cc4)c4ccccc4nc-3cc2Nc2ccc(Cl)cc2)CC1 | > 16 | 
3 | NNC(=O)c1ccncc1 [ISONIAZID] |  | MIC [3]: > 16 µg/mL
4 | O=C1c2ccccc2C(=O)N1CCCN1CCN(CC/N=c2/cc3n(-c4ccc(Cl)cc4)c4ccccc4nc-3cc2Nc2ccc(Cl)cc2)CC1 | > 16 | 
5 | O=C1c2cccc3cccc(c23)C(=O)N1CCCN1CCN(CC/N=c2/cc3n(-c4ccc(Cl)cc4)c4ccccc4nc-3cc2Nc2ccc(Cl)cc2)CC1 | > 16 | 
6 | O=C1c2cccc3cccc(c23)C(=O)N1CCCCCN1CCN(CC/N=c2/cc3n(-c4ccc(Cl)cc4)c4ccccc4nc-3cc2Nc2ccc(Cl)cc2)CC1 | > 16 | 
7 | O=C1c2ccccc2C(=O)N1CCCCCCN1CCN(CC/N=c2/cc3n(-c4ccc(Cl)cc4)c4ccccc4nc-3cc2Nc2ccc(Cl)cc2)CC1 |  | MIC [1]: 4 µg/mL (≈ 5.18 µM)
8 | O=C1c2cccc3cccc(c23)C(=O)N1CCCCCCN1CCN(CC/N=c2/cc3n(-c4ccc(Cl)cc4)c4ccccc4nc-3cc2Nc2ccc(Cl)cc2)CC1 |  | MIC [4]: 16 µg/mL (≈ 19.4 µM)
9 | O=C1c2ccccc2C(=O)N1CCCCN1CCN(CC/N=c2/cc3n(-c4ccc(Cl)cc4)c4ccccc4nc-3cc2Nc2ccc(Cl)cc2)CC1 | > 16 | 
